According to PubChem BioAssay (NCI):
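Five compound concentrations were applied to cells in 96-well plates for 48 hours; endpoints were derived by simple linear interpolation of the resulting dose-response curve. At the GI50, growth is halved. TGI denotes the concentration required for complete inhibition of growth.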

How the values were obtained:
Experiment in all cases: NCI-60 cell line screen, 48 h
[1] = tested on: 786-0 renal
[2] = tested on: A498 renal
[3] = tested on: A549 NSCLC
[4] = tested on: ACHN renal
[5] = tested on: BT-549 breast
[6] = tested on: CAKI-1 renal
[7] = tested on: CCRF-CEM leukemia
[8] = tested on: COLO 205 colon
[9] = tested on: DU-145 prostate
[10] = tested on: EKVX NSCLC
[11] = tested on: HCC-2998 colon
[12] = tested on: HCT-116 colon
[13] = tested on: HCT-15 colon
[14] = tested on: HL-60(TB) leukemia
[15] = tested on: HOP-62 NSCLC
[16] = tested on: HOP-92 NSCLC
[17] = tested on: HS 578T breast
[18] = tested on: HT29 colon
[19] = tested on: IGROV1 ovarian
[20] = tested on: K-562 leukemia
[21] = tested on: KM12 colon
[22] = tested on: LOX IMVI melanoma
[23] = tested on: M14 melanoma
[24] = tested on: MALME-3M melanoma
[25] = tested on: MCF7 breast
[26] = tested on: MDA-MB-231 breast
[27] = tested on: MDA-MB-435
[28] = tested on: MDA-MB-468 breast
[29] = tested on: MOLT-4 leukemia
[30] = tested on: NCI-H226 lung
[31] = tested on: NCI-H23 lung
[32] = tested on: NCI-H460 lung
[33] = tested on: NCI-H522 lung
[34] = tested on: NCI/ADR-RES ovarian
[35] = tested on: OVCAR-3 ovarian
[36] = tested on: OVCAR-4 ovarian
[37] = tested on: OVCAR-5 ovarian
[38] = tested on: OVCAR-8 ovarian
[39] = tested on: PC-3 prostate
[40] = tested on: RPMI-8226 leukemia
[41] = tested on: RXF 393 renal
[42] = tested on: SF-268 CNS
[43] = tested on: SF-295 CNS
[44] = tested on: SF-539 CNS
[45] = tested on: SK-MEL-2 melanoma
[46] = tested on: SK-MEL-28 melanoma
[47] = tested on: SK-MEL-5 melanoma
[48] = tested on: SK-OV-3 ovarian
[49] = tested on: SN12C renal
[50] = tested on: SNB-19 CNS
[51] = tested on: SNB-75 CNS
[52] = tested on: SR leukemia
[53] = tested on: SW-620 colon
[54] = tested on: T-47D breast
[55] = tested on: TK-10 renal
[56] = tested on: U251 CNS
[57] = tested on: UACC-257 melanoma
[58] = tested on: UACC-62 melanoma
[59] = tested on: UO-31 renal

C=C1CCC2C3(C)COC(c4ccccc4F)OC3CCC2(C)C1CC(O)C1=CCOC1=O (stereo unspecified)
GI50 [1]: 16.7 µM
TGI [1]: 32.8 µM
GI50 [2]: 23.5 µM
TGI [2]: 77.2 µM
GI50 [3]: 24.4 µM
TGI [3]: > 100 µM
GI50 [4]: 13.4 µM
TGI [4]: 26.2 µM
GI50 [5]: 5.9 µM
TGI [5]: 22 µM
GI50 [6]: 25 µM
TGI [6]: > 100 µM
GI50 [7]: 3.08 µM
TGI [7]: > 100 µM
GI50 [8]: 19.3 µM
TGI [8]: 55.9 µM
GI50 [9]: 28.9 µM
TGI [9]: > 100 µM
GI50 [10]: 87.7 µM
TGI [10]: > 100 µM
GI50 [11]: 25.3 µM
TGI [11]: > 100 µM
GI50 [12]: 4.3 µM
TGI [12]: 17.2 µM
GI50 [13]: 9.51 µM
TGI [13]: 33.5 µM
GI50 [14]: 5.66 µM
TGI [14]: > 100 µM
GI50 [15]: 23 µM
TGI [15]: 42.4 µM
GI50 [16]: 18.1 µM
TGI [16]: 45.4 µM
GI50 [17]: 28.1 µM
TGI [17]: > 100 µM
GI50 [18]: 13.3 µM
TGI [18]: 52.6 µM
GI50 [19]: 24.2 µM
TGI [19]: 69.1 µM
GI50 [20]: 5.7 µM
TGI [20]: > 100 µM
GI50 [21]: 17.7 µM
TGI [21]: > 100 µM
GI50 [22]: 11.1 µM
TGI [22]: 23.1 µM
GI50 [23]: 30 µM
TGI [23]: > 100 µM
GI50 [24]: 22.5 µM
TGI [24]: 68.4 µM
GI50 [25]: 3.48 µM
TGI [25]: 20.2 µM
GI50 [26]: 16.9 µM
TGI [26]: 35.6 µM
GI50 [27]: 12.6 µM
TGI [27]: 46.9 µM
GI50 [28]: 4.71 µM
TGI [28]: 19.1 µM
GI50 [29]: 40.8 µM
TGI [29]: > 100 µM
GI50 [30]: 5.74 µM
TGI [30]: 22.7 µM
GI50 [31]: 23.6 µM
TGI [31]: 73.9 µM
GI50 [32]: 25.4 µM
TGI [32]: > 100 µM
GI50 [33]: 6 µM
TGI [33]: 21.4 µM
GI50 [34]: 8.93 µM
TGI [34]: 25.3 µM
GI50 [35]: 9.68 µM
TGI [35]: 26.6 µM
GI50 [36]: 13.8 µM
TGI [36]: 53.9 µM
GI50 [37]: 16.3 µM
TGI [37]: 50.8 µM
GI50 [38]: 4.86 µM
TGI [38]: 19.2 µM
GI50 [39]: 18.2 µM
TGI [39]: > 100 µM
GI50 [40]: 6.73 µM
TGI [40]: > 100 µM
GI50 [41]: 14.1 µM
TGI [41]: 30.9 µM
GI50 [42]: 28.4 µM
TGI [42]: > 100 µM
GI50 [43]: 15.9 µM
TGI [43]: 44.9 µM
GI50 [44]: 14.9 µM
TGI [44]: 28.3 µM
GI50 [45]: 14.6 µM
TGI [45]: 29.1 µM
GI50 [46]: 26.4 µM
TGI [46]: > 100 µM
GI50 [47]: 17.1 µM
TGI [47]: 39.4 µM
GI50 [48]: 37.1 µM
TGI [48]: > 100 µM
GI50 [49]: 6.14 µM
TGI [49]: 92.5 µM
GI50 [50]: 33.1 µM
TGI [50]: > 100 µM
GI50 [51]: 6.89 µM
TGI [51]: 26.1 µM
GI50 [52]: 57.1 µM
TGI [52]: > 100 µM
GI50 [53]: 2.1 µM
TGI [53]: 11.4 µM
GI50 [54]: 10.7 µM
TGI [54]: > 100 µM
GI50 [55]: 34.6 µM
TGI [55]: > 100 µM
GI50 [56]: 11.9 µM
TGI [56]: 24.6 µM
GI50 [57]: 20 µM
TGI [57]: > 100 µM
GI50 [58]: 15.9 µM
TGI [58]: 46 µM
GI50 [59]: 13.4 µM
TGI [59]: 54.1 µM

COc1cc(OC)c2c3nc4cc(C)c(C)cc4nc3n(CCN(C)C)c2c1
GI50 [1]: 14.2 µM
TGI [1]: 29.2 µM
GI50 [2]: > 100 µM
TGI [2]: > 100 µM
GI50 [3]: 4.98 µM
TGI [3]: 22.9 µM
GI50 [4]: 11.1 µM
TGI [4]: 23.1 µM
GI50 [5]: 14.2 µM
TGI [5]: 28.5 µM
GI50 [6]: 15.9 µM
TGI [6]: 29.8 µM
GI50 [7]: 22.4 µM
TGI [7]: > 100 µM
GI50 [8]: 5.51 µM
TGI [8]: 20 µM
GI50 [9]: 14.5 µM
TGI [9]: 28.2 µM
GI50 [10]: 14.7 µM
TGI [10]: 28.3 µM
GI50 [11]: 12.7 µM
TGI [11]: 26.1 µM
GI50 [12]: 13.9 µM
TGI [12]: 30.3 µM
GI50 [13]: 11.4 µM
TGI [13]: 24.7 µM
GI50 [14]: 16.3 µM
TGI [14]: 36.4 µM
GI50 [15]: 5.75 µM
TGI [15]: 22.2 µM
GI50 [16]: 11.5 µM
TGI [16]: 31.1 µM
GI50 [17]: 15.7 µM
TGI [17]: 39.5 µM
GI50 [18]: 4.88 µM
TGI [18]: 31.4 µM
GI50 [19]: 12 µM
TGI [19]: 26.1 µM
GI50 [20]: 3.1 µM
TGI [20]: 25.3 µM
GI50 [21]: 17.5 µM
TGI [21]: 34.2 µM
GI50 [22]: 8.99 µM
TGI [22]: 22.7 µM
GI50 [23]: 13.5 µM
TGI [23]: 30.6 µM
GI50 [24]: 14.1 µM
TGI [24]: 28.1 µM
GI50 [25]: 4.75 µM
TGI [25]: 19.2 µM
GI50 [26]: 11.6 µM
TGI [26]: 24.2 µM
GI50 [27]: 14.5 µM
TGI [27]: 28.2 µM
GI50 [28]: 12.8 µM
TGI [28]: 26.4 µM
GI50 [29]: 10.6 µM
TGI [29]: 41.7 µM
GI50 [30]: 14.4 µM
TGI [30]: 32.3 µM
GI50 [31]: 13.1 µM
TGI [31]: 27.8 µM
GI50 [32]: 12.1 µM
TGI [32]: 26.5 µM
GI50 [33]: 13.5 µM
TGI [33]: 33.6 µM
GI50 [34]: 10 µM
TGI [34]: 27.7 µM
GI50 [35]: 16.1 µM
TGI [35]: 30.6 µM
GI50 [36]: 14.9 µM
TGI [36]: 33.6 µM
GI50 [37]: 15.1 µM
TGI [37]: 29.1 µM
GI50 [38]: 2.4 µM
TGI [38]: 6.84 µM
GI50 [39]: 15.5 µM
TGI [39]: 61.4 µM
GI50 [40]: 19.9 µM
TGI [40]: > 100 µM
GI50 [41]: 11.8 µM
TGI [41]: 25.1 µM
GI50 [42]: 14.4 µM
TGI [42]: 32.1 µM
GI50 [43]: 13.1 µM
TGI [43]: 26.2 µM
GI50 [44]: 15 µM
TGI [44]: 28.3 µM
GI50 [45]: 16.7 µM
TGI [45]: 35.4 µM
GI50 [46]: 15.6 µM
TGI [46]: 29.3 µM
GI50 [47]: 16.1 µM
TGI [47]: 29.8 µM
GI50 [48]: 16.7 µM
TGI [48]: 32.1 µM
GI50 [49]: 11.5 µM
TGI [49]: 24.6 µM
GI50 [50]: 12.9 µM
TGI [50]: 25.7 µM
GI50 [51]: 12.1 µM
TGI [51]: 25.5 µM
GI50 [52]: 4.29 µM
TGI [52]: 50.7 µM
GI50 [53]: 4.65 µM
TGI [53]: 18.7 µM
GI50 [54]: 12.9 µM
TGI [54]: 32.1 µM
GI50 [55]: 16.5 µM
TGI [55]: 31.9 µM
GI50 [56]: 12.8 µM
TGI [56]: 28 µM
GI50 [57]: 14.9 µM
TGI [57]: 31.9 µM
GI50 [58]: 15.2 µM
TGI [58]: 29.1 µM
GI50 [59]: 6.21 µM
TGI [59]: 20.2 µM
